Several values for one entry are separate records, joined by “and”; a condition that tells them apart may be missing. Equal values may be shown once. Read-outs that look alike come from different tables or passages of the source.
How the values were obtained:
CypB = target: T1, CypB (Homo sapiens, UniProt P23284); test: biochemical; settings: for prolyl-isomerase activity (raw dose-response value): CypB
T1 construct: PPIB (UniProtKB Entry P23284: residues 34–216); His6 with TEV site (2BT vector leader) (N); made in house; host or cells: E. coli BL21(DE3)
T1 sequence (P23284 34-216): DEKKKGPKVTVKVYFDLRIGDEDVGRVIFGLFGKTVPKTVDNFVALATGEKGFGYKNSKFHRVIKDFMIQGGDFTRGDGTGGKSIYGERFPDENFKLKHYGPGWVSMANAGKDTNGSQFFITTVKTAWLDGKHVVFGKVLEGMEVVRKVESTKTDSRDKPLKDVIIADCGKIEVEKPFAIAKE
Description: (§1) Adapting a previously described protocol, with an Agilent Bravo Velocity 11 with a 384ST head, 90 µL assay buffer (25 mM HEPES pH 7.3, 100 mM NaCl, 0.01% Triton X-100) containing 5.28 nM cyclophilin was added into a flat, clear-bottom, black 384-well plate pre-chilled in a Corning CoolBox at 2–3 °C. Five microliters of compound pre-dissolved in 5% DMSO/assay buffer was then added to appropriate wells and incubated at 2–3 °C for 5 min. Five microliters of 0.5 mM α-chymotrypsin from bovine pancreas (Type II, lyophilized powder, Millipore-Sigma) in 20% 1 mM HCl/Assay Buffer was then added to each well and incubated at 2–3 °C for 5 min. The plate was then quickly transferred to a FLIPR Tetra High-Throughput Cellular Screening System (Molecular Devices). Using the internal liquid handling system of the FLIPR, 1 µL 0.5 mM Suc-AAPF-AMC (Chymotrypsin Substrate II, Millipore-Sigma) dissolved in 0.55 M LiCl/2,2,2-trifluoroethanol was added to each well, which was then mixed for 5 s, followed by immediate fluorescence measurements every 1 s for 330 s using a 360–380 nm excitation LED module and a 400–460 nm emission filter. Final concentrations of the plate include 5 nM cyclophilin, 0.25% DMSO, 25 µM α-chymotrypsin, 5 µM Suc-AAPF-AMC. Raw fluorescence data was analyzed by non-linear regression analysis with Prism v.9 by fitting one-phase association curves to each well. […] Rate constants calculated for each well (s^−1) were then normalized to substrate only (no prolyl-isomerase) and enzyme + substrate only controls. IC50 values were calculated as the value at which 50% inhibition was achieved on the non-linear regression fitted curve of each compound.

NKTR = target: T2, NKTR (Homo sapiens, UniProt P30414); test: Chymotrypsin coupled prolyl-isomerase assay; type: biochemical; settings: for prolyl-isomerase activity (raw dose-response value): NKTR
T2 construct: NKTR (UniProtKB Entry P30414: residues 7–179); host or cells: E. coli BL21(DE3)
T2 sequence (P30414 7-179): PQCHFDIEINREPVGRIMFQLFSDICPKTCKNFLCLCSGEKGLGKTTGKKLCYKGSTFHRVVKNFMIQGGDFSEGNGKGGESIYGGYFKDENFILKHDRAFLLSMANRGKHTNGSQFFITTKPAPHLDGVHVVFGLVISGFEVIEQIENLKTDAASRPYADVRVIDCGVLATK

PPIL1 = target: T3, PPIL1 (Homo sapiens, UniProt Q9Y3C6); test: Chymotrypsin coupled prolyl-isomerase assay; type: biochemical
T3 construct: PPIL1 (UniProtKB Entry Q9Y3C6: residues 1–166); made in house; host or cells: E. coli BL21(DE3)
T3 sequence (Q9Y3C6 1-166): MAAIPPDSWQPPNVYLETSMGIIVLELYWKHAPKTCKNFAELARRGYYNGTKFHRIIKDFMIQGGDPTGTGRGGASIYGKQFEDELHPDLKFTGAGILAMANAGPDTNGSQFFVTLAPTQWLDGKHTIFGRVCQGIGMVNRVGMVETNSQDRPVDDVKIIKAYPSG

CypA = target: T4, CypA (Homo sapiens, UniProt P62937); test: Chymotrypsin coupled prolyl-isomerase assay; type: biochemical; settings: for prolyl-isomerase activity (raw dose-response value): CypA, in s^-1
T4 construct: PPIA (UniProtKB Entry P62937: residues 1–165); made in house; host or cells: E. coli BL21(DE3)
T4 sequence (P62937 whole entry, the tested form may be a part): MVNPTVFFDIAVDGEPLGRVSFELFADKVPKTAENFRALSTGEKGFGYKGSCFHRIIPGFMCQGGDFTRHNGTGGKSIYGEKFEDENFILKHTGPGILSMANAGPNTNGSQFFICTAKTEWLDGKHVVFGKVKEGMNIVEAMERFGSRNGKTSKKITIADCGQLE
Description: as §1

CypE = target: T5, CypE (Homo sapiens, UniProt Q9UNP9); test: Chymotrypsin coupled prolyl-isomerase assay; type: biochemical; settings: CypE, dose 0.00976562 µM; in s^-1
T5 construct: PPIE (UniProtKB Entry Q9UNP9: residues 131–301); host or cells: E. coli BL21(DE3)
T5 sequence (Q9UNP9 131-301): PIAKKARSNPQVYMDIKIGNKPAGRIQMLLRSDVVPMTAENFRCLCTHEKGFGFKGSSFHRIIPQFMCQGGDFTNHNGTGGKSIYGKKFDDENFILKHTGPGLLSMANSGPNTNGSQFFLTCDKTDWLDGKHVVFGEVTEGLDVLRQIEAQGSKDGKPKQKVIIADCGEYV
Description: as §1

`NCCOCCNC(=O)[C@@H]1CCNC(=O)/C=C/C(=O)N2CCC[C@](Cc3ccccc3)(C2)C(=O)N[C@@H](Cc2ccc(-c3ccccc3)cc2)C(=O)NCc2ccccc2CC(=O)N1` [Compound B2] was tested, and the “prolyl-isomerase activity (raw dose-response value)” value (“prolyl-isomerase activity” for short) (CypB; dose 0.00457247 µM) was 0.09192 and 0.1036 and 0.1252, the “prolyl-isomerase activity” value (CypB; dose 0.0137174 µM) was 0.09377 and 0.09227 and 0.1138 and the “prolyl-isomerase activity” value (CypB; dose 0.0411523 µM) was 0.08535 and 0.07571 and 0.07363. The “prolyl-isomerase activity” value (CypB; dose 0.123457 µM) was 0.076 and 0.06873 and 0.07349, the “prolyl-isomerase activity” value (CypB; dose 0.37037 µM) was 0.05318 and 0.03953 and 0.04525 and the “prolyl-isomerase activity” value (CypB; dose 1.11111 µM) was 0.03174 and 0.02714 and 0.02735. The “prolyl-isomerase activity” value (CypB; dose 3.33333 µM) was 0.02002 and 0.01837 and 0.01843, the “prolyl-isomerase activity” value (CypB; dose 10 µM) was 0.01579 and 0.01529 and 0.01363 and the IC50 (CypB; wild-type CypB, read-out: Wild-Type Cyclophilin Prolyl Isomerase Inhibition IC50 Values, CypB) was 160 nM. The “prolyl-isomerase activity” value (NKTR; dose 0.0457247 µM) was 0.03158 and 0.03033 and 0.03469, the “prolyl-isomerase activity” value (NKTR; dose 0.137174 µM) was 0.03164 and 0.03314 and 0.03312 and the “prolyl-isomerase activity” value (NKTR; dose 0.411523 µM) was 0.0325 and 0.0338 and 0.02719. For the same compound, the “prolyl-isomerase activity” value (NKTR; dose 1.23457 µM) was 0.03372 and 0.0315 and 0.03341, the “prolyl-isomerase activity” value (NKTR; dose 3.7037 µM) was 0.03071 and 0.03218 and 0.03337 and the “prolyl-isomerase activity” value (NKTR; dose 11.1111 µM) was 0.03272 and 0.0287 and 0.03154. For the same compound, the “prolyl-isomerase activity” value (NKTR; dose 33.3333 µM) was 0.034 and 0.032 and 0.03, the “prolyl-isomerase activity” value (NKTR; dose 100 µM) was 0.0243 and 0.0254 and 0.02366 and the IC50 (NKTR; prolyl-isomerase inhibition, 5 nM cyclophilin, read-out: IC50 NKTR) was about 100000 nM. For the same compound, the IC50 (NKTR; wild-type NKTR, read-out: Wild-Type Cyclophilin Prolyl Isomerase Inhibition IC50 Values, NKTR) was 100000 nM, the “prolyl-isomerase activity” value (PPIL1; PPIL1, dose 0.0228624 µM) was 0.08321 and 0.1059 and 0.1063 and the “prolyl-isomerase activity” value (PPIL1; PPIL1, dose 0.0685871 µM) was 0.0991 and 0.07246 and 0.09332. For the same compound, the “prolyl-isomerase activity” value (PPIL1; PPIL1, dose 0.205761 µM) was 0.0916 and 0.08667 and 0.07563, the “prolyl-isomerase activity” value (PPIL1; PPIL1, dose 0.617284 µM) was 0.08092 and 0.07121 and 0.1066 and the “prolyl-isomerase activity” value (PPIL1; PPIL1, dose 1.85185 µM) was 0.07438 and 0.05377 and 0.06473. The “prolyl-isomerase activity” value (PPIL1; PPIL1, dose 5.55556 µM) was 0.04981 and 0.03892 and 0.03912, the “prolyl-isomerase activity” value (PPIL1; PPIL1, dose 16.6667 µM) was 0.02881 and 0.02468 and 0.02483 and the “prolyl-isomerase activity” value (PPIL1; PPIL1, dose 50 µM) was 0.01705 and 0.01748 and 0.0139. For the same compound, the IC50 (PPIL1; wild-type PPIL1, read-out: Wild-Type Cyclophilin Prolyl Isomerase Inhibition IC50 Values, PPIL1) was 1900 nM, the “prolyl-isomerase activity” value (CypA; dose 0.00457247 µM) was 0.09251 and 0.1054 and 0.1209 and the “prolyl-isomerase activity” value (CypA; dose 0.0137174 µM) was 0.07185 and 0.09383 and 0.08908. For the same compound, the “prolyl-isomerase activity” value (CypA; dose 0.0411523 µM) was 0.0832 and 0.08759 and 0.09561, the “prolyl-isomerase activity” value (CypA; dose 0.123457 µM) was 0.08468 and 0.0712 and 0.08817 and the “prolyl-isomerase activity” value (CypA; dose 0.37037 µM) was 0.0566 and 0.04501 and 0.06387. For the same compound, the “prolyl-isomerase activity” value (CypA; dose 1.11111 µM) was 0.03625 and 0.03272 and 0.04381, the “prolyl-isomerase activity” value (CypA; dose 3.33333 µM) was 0.02153 and 0.02404 and 0.02804 and the “prolyl-isomerase activity” value (CypA; dose 10 µM) was 0.01608 and 0.01935 and 0.02238. For the same compound, the IC50 (CypA; wild-type CypA, read-out: Wild-Type Cyclophilin Prolyl Isomerase Inhibition IC50 Values, CypA) was 240 nM and the “prolyl-isomerase activity” value (CypE) was 0.1022 and 0.09371 and 0.09482.
